Series [1] relates to MDA-MB-231. The series can be described thus: Antiproliferative activity against human MDA-MB-231 cells assessed as inhibition of cell growth incubated for 72 hrs by MTT assay. Type of series: functional, cell-based. As to conditions: MDA-MB-231, 72 h.
Series [2] can be described thus: Toxicity in nude mouse xenografted with human MDA-MB-231 cells assessed as loss of body weight at 7.5 to 10 mg/kg, ip measured daily for 14 days. Format: organism-based. As to conditions: in vivo, 336 h, dose 7.5-10 mg/kg, time 14 day.
For series [3], the target named is Signal transducer and activator of transcription 3 (Homo sapiens) (UniProt P40763). Kind of series: Inhibition of STAT3 in human MDA-MB-231 cells assessed as suppression of STAT3 phosphorylation incubated for 24 hrs by Western blotting analysis. Type of series: cell-based. As to conditions: dose 1-10 µM, DDE = dose-dependent effect. (Immunoblotting shows a protein as a band on a membrane.)

For series [4], the system named is MDA-MB-231. The series can be described thus: Induction of apoptosis in human MDA-MB-231 cells assessed as increase in cleaved PARP level at 1 to 10 uM incubated for 48 hrs by Western blotting analysis. Type of series: functional, cell-based. As to conditions: dose 1-10 µM.
In series [5] the test system is MDA-MB-231. The series can be described thus: Induction of apoptosis in human MDA-MB-231 cells assessed as late apoptotic cells at 5 uM incubated for 48 hrs by Annexin V staining based cell analyzer method (reference value: 4.45%). Type of series: functional.
Series [6] relates to MDA-MB-231. The series can be described thus: Induction of apoptosis in human MDA-MB-231 cells assessed as early apoptotic cells at 1 uM incubated for 48 hrs by Annexin V staining based cell analyzer method (reference value: 2.6%). Type of series: functional.
Series [7] relates to MDA-MB-231. Kind of series: Induction of apoptosis in human MDA-MB-231 cells assessed as activation of Bax at 1 to 10 uM incubated for 48 hrs by Western blotting analysis. Format: functional, cell-based. As to conditions: dose 1-10 µM.
The subject of series [8] is MDA-MB-468. The series can be described thus: Inhibition of colony formation in human MDA-MB-468 cells incubated for 2 weeks measured by crystal violet staining method. Format: functional, cell-based. The note with it: dose 0.5-7.5 µM, DDE = dose-dependent effect.
The subject of series [9] is MDA-MB-231. Kind of series: Induction of apoptosis in human MDA-MB-231 cells assessed as viable cells at 1 uM incubated for 48 hrs by Annexin V staining based cell analyzer method (reference value: 92.55%). As to conditions: read-out: Activity. Format: functional.
Series [10] concerns T47D. Kind of series: Inhibition of colony formation in human T47D cells incubated for 2 weeks measured by crystal violet staining method. Format: functional, cell-based. As to conditions: dose 0.5-7.5 µM, DDE = dose-dependent effect.
Series [11] concerns MDA-MB-231. Kind of series: Induction of apoptosis in human MDA-MB-231 cells assessed as necrotic cells at 1 uM incubated for 48 hrs by Annexin V staining based cell analyzer method (reference value: 0.4%). Type of series: functional.
Series [12] concerns T47D. The series can be described thus: Antiproliferative activity against human T47D cells assessed as inhibition of cell growth incubated fro 72 hrs by MTT assay. Format: functional, cell-based. A general note: Formazan colour is commonly taken as a measure of viable cells.
Series [13] deals with MDA-MB-231. Kind of series: Induction of apoptosis in human MDA-MB-231 cells assessed as increase in cleaved caspase-3 level at 1 to 10 uM incubated for 48 hrs by Western blotting analysis. Type of series: functional, cell-based. As to conditions: dose 1-10 µM.
Series [14] deals with MDA-MB-231. The series can be described thus: Induction of apoptosis in human MDA-MB-231 cells assessed as viable cells at 10 uM incubated for 48 hrs by Annexin V staining based cell analyzer method (reference value: 92.55%). Type of series: functional. The note with it: read-out: Activity.
In series [15] the test system is MDA-MB-231. Kind of series: Induction of apoptosis in human MDA-MB-231 cells assessed as late apoptotic cells at 1 uM incubated for 48 hrs by Annexin V staining based cell analyzer method (reference value: 4.45%). Type of series: functional.
For series [16], the system named is MDA-MB-468. The series can be described thus: Antiproliferative activity against human MDA-MB-468 cells assessed as inhibition of cell growth incubated for 72 hrs by MTT assay. Type of series: functional, cell-based. As to conditions: MDA-MB-468, 72 h.
For series [17], the system named is MDA-MB-231. Kind of series: Induction of apoptosis in human MDA-MB-231 cells assessed as necrotic cells at 10 uM incubated for 48 hrs by Annexin V staining based cell analyzer method (reference value: 0.4%). Type of series: functional.
For series [18], the system named is MDA-MB-231. Kind of series: Induction of apoptosis in human MDA-MB-231 cells assessed as early apoptotic cells at 5 uM incubated for 48 hrs by Annexin V staining based cell analyzer method (reference value: 2.6%). Type of series: functional.
Series [19] concerns MDA-MB-231. Kind of series: Induction of apoptosis in human MDA-MB-231 cells assessed as early apoptotic cells at 10 uM incubated for 48 hrs by Annexin V staining based cell analyzer method (reference value: 2.6%). Type of series: functional.
A short description of series [20]: Cytotoxicity against human MCF-10A cells incubated for 72 hrs by MTT assay. Format: toxicity, cell-based.
Series [21] relates to MDA-MB-231. Kind of series: Antitumor activity against human MDA-MB-231 cells xenografted in nude mouse assessed as reduction in tumor volume at 10 mg/kg, ip measured every other day for 14 days. Format: functional. As to conditions: MDA-MB-231, 336 h, time 14 day. Background: In xenograft studies the graft and the host belong to different species.
The test system of series [22] is MDA-MB-231. Kind of series: Induction of apoptosis in human MDA-MB-231 cells assessed as late apoptotic cells at 10 uM incubated for 48 hrs by Annexin V staining based cell analyzer method (reference value: 4.45%). Format: functional.
For series [23], the system named is MDA-MB-231. Kind of series: Induction of apoptosis in human MDA-MB-231 cells assessed as downregulation of Bcl-2 level at 1 to 10 uM incubated for 48 hrs by Western blotting analysis. Type of series: functional, cell-based. The note with it: dose 1-10 µM.
The test system of series [24] is MCF7. Kind of series: Inhibition of colony formation in human MCF7 cells incubated for 2 weeks measured by crystal violet staining method. The note with it: dose 1-10 µM, DDE = dose-dependent effect. Type of series: functional, cell-based.
The subject of series [25] is MDA-MB-231. Kind of series: Inhibition of colony formation in human MDA-MB-231 cells incubated for 2 weeks measured by crystal violet staining method. Format: functional, cell-based. The note with it: dose 0.1-3 µM, DDE = dose-dependent effect.
The subject of series [26] is MDA-MB-231. Kind of series: Induction of apoptosis in human MDA-MB-231 cells assessed as necrotic cells at 5 uM incubated for 48 hrs by Annexin V staining based cell analyzer method (reference value: […]). Format: functional.
The subject of series [27] is MCF7. The series can be described thus: Antiproliferative activity against human MCF7 cells assessed as inhibition of cell growth incubated for 72 hrs by MTT assay. Type of series: functional, cell-based. As to conditions: MCF7, 72 h.
Series [28] deals with MDA-MB-231. Kind of series: Induction of apoptosis in human MDA-MB-231 cells assessed as viable cells at 5 uM incubated for 48 hrs by Annexin V staining based cell analyzer method (reference value: 92.55%). The note with it: read-out: Activity. Type of series: functional.

pIC50: −log10 of the molar value. Activity calls are given as the source filed them. The calls are words filed in the database; no cut-off is given here.

Chain of Signal transducer and activator of transcription 3 (Homo sapiens) (P40763 whole entry): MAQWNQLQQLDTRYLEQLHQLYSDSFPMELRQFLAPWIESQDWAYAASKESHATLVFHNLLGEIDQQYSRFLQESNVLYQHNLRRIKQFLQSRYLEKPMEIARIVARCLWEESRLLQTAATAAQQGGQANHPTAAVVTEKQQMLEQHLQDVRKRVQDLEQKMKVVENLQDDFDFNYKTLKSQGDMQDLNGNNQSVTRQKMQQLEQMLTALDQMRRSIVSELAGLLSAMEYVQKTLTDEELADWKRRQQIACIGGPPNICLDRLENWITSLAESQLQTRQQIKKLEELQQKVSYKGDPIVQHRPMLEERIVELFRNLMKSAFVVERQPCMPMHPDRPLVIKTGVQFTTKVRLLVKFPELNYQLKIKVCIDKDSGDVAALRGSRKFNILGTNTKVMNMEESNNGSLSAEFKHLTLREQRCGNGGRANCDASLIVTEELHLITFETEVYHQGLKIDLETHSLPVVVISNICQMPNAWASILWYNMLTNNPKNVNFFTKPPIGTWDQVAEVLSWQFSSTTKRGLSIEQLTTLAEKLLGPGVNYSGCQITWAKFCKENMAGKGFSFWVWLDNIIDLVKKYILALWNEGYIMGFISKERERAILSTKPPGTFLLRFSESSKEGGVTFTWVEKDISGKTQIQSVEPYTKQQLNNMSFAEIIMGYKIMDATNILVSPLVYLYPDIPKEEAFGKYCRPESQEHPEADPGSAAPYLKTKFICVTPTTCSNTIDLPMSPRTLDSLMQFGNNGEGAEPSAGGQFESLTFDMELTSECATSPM

`CC(C)[C@H](NC(=O)c1cc(Cl)ccc1OCCNC(=O)OC(C)(C)C)C(=O)Nc1ccc([N+](=O)[O-])cc1Cl`: the negative-log IC50 (pIC50) was 5.47 with MDA-MB-231 [1], 5.05 in the series with T47D [12], 4.74 with MDA-MB-468 [16] and 5.04 in the series on MCF7 [27]. Also, the Activity entry is listed as “Non-Toxic” in [2]; 10.9% with MDA-MB-231 [5]; 2.85% with MDA-MB-231 [6]; 0.3% in the series on MDA-MB-231 [11]; 2.6% with MDA-MB-231 [15]; 1.6% in the series on MDA-MB-231 [17]. The Activity came to 9.75% with MDA-MB-231 [18], 17.85% in the series with MDA-MB-231 [19], 35.7% with MDA-MB-231 [22] and 0.55% with MDA-MB-231 [26]. Also, the inhibition entry (in series [3]; in the series on MDA-MB-468 [8]; with T47D [10]; with MCF7 [24]; with MDA-MB-231 [25]) was “Dde” throughout. The result in the series on MDA-MB-231 [4], in the series on MDA-MB-231 [7], in the series with MDA-MB-231 [13] and in the series on MDA-MB-231 [23] was Active. For the same compound, the viability at 1 µM with MDA-MB-231 [9] amounted to 94.2%. In addition, in the series with MDA-MB-231 [14], the viability at 10 µM was found to be 44.9%. The IC50 at 72 h in [20] was over 60 µM. In the series on MDA-MB-231 [21], the inhibition in vivo at 10 mg/kg amounted to 55%. In addition, in the series on MDA-MB-231 [28], the viability at 5 µM is 78.8%.
As for `NCCOc1ccc(Cl)cc1C(=O)N[C@@H](Cc1ccccc1)C(=O)Nc1ccc2c(c1)S(=O)(=O)C=C2`, the negative logarithm of the IC50 (pIC50) with MDA-MB-231 [1] was 5.85; with T47D [12] it was 5.80; in the series on MDA-MB-468 [16], 5.45; with MCF7 [27], 5.79. This compound also came in with an IC50 at 72 h in series [20] of 2.03 µM.

As a reminder, the pIC50 is the negative decadic logarithm of the IC50, by convention in mol/L. The IC50 is the point on the concentration scale where inhibition reaches its midpoint. As usually defined, the inhibition in vivo is how much of the control response was suppressed.
